Assay results: patent US20210267205A1, “METHOD OF CONTROLLING WEEDS” (SUMITOMO CHEMICAL COMPANY, LIMITED, priority 2018, published 2021)

Experiments:
Assay type in all cases: in vivo
[1] = test system: Amaranthus palmeri, waterhemp and ragweeds having mutations in PPO2; experiment: Effect on weeds, soil surface application on day of sowing weeds and soybean (Example 2); conditions: 10, 20, 40, 80, or 160 g/ha, 200 L/ha, drift-reducing nozzle TTI11004, examined after 21 days
Description: (§1) Amaranthus palmeri having an Arg128Gly mutation in PPO2, Amaranthus palmeri having an Arg128Met mutation in PPO2, Amaranthus palmeri having a Gly210 deletion mutation in PPO2, Amaranthus palmeri having a Gly399Ala mutation in PPO2, waterhemp having a Gly210 deletion mutation in PP02, ragweeds having Arg128Leu in PP02, and a Roundup Ready 2 Xtend soybean are sown in a plastic pot. On the same day, a compound X is applied to the surface of soil by using a drift-reducing nozzle (TTI11004 manufactured by Teejet Company). The amount of the compound X to be applied is 10, 20, 40, 80, or 160 g/ha and the amount of spray dilution is 200 L/ha. Then, the weeds and soybean are cultivated in a greenhouse to examine the effects on the weeds and phytotoxic effects on the soybean after 21 days.

[2] = test system: Amaranthus palmeri, waterhemp and ragweeds having mutations in PPO2; experiment: Effect on weeds, foliar treatment 21 days after sowing (Example 3); conditions: 10, 20, 40, 80, or 160 g/ha, 200 L/ha, drift-reducing nozzle TTI11004, examined 14 days after treatment
Description: Amaranthus palmeri having an Arg128Gly mutation in PPO2, Amaranthus palmeri having an Arg128Met mutation in PPO2, Amaranthus palmeri having a Gly210 deletion mutation in PPO2, Amaranthus palmeri having a Gly399A1a mutation in PPO2, waterhemp having a Gly210 deletion mutation in PP02, ragweeds having Arg128Leu in PP02, and a Roundup Ready 2 Xtend soybean are sown in a plastic pot. Then, the weeds and soybean are cultivated in a greenhouse and a compound X is applied to perform foliar treatment by using a drift-reducing nozzle (TTI11004 manufactured by Teejet Company) 21 days after sowing. The amount of the compound X to be applied is 10, 20, 40, 80, or 160 g/ha and the amount of spray dilution is 200 L/ha. Then, the weeds and soybean are further cultivated in a greenhouse to examine the effects on the weeds and phytotoxic effects on the soybean 14 days after treatment.

[3] = test system: Amaranthus palmeri, waterhemp and ragweeds having mutations in PPO2; experiment: Effect on weeds, soil surface application on day of weed sowing, soybean sown after 7 days (Example 1); conditions: 10, 20, 40, 80, or 160 g/ha, 200 L/ha, drift-reducing nozzle TTI11004, examined after 14 days
Description: as §1, with “in PPO2, and” for “in PP02,”, “in PPO2” for “in PP02, and a Roundup Ready 2 Xtend soybean”, “Then, these” for “Then, the”, “weeds” for “weeds and soybean”, “greenhouse and Roundup Ready 2 Xtend soybean seeds are sown after 7 days,” for “greenhouse”, “after 14” for “after 21”

Echinochloa crus-galli [4] = experiment: Herbicidal effect, soil spray the day after seeding, pot test (Example 1154); conditions: 150 L per 10000 m^2, 30 PSI, 10 days in greenhouse, scale of 0 to 100
Method: (§2) Echinochloa crus-galli was seeded on a plastic pot filled with a soil. On the next day, an aqueous diluted liquid of trifludimoxazin (prepared by diluting an emuslfiable concentrate of trifludimoxazin with water) was uniformly sprayed onto the pot through the nozzles given in Table 2 at the amount of the aqueous diluted liquid of 150 L per 10000 m^2 so that the application rate of trifludimoxazin might be 30 or 15 g per 10000 m^2. The spray pressure was 30 PSI and the spray height (distance between the nozzle outlet and the soil surface of the pot) was 60 cm. The air temperature was 17 degrees Celsius, the wind speed was 2.5 m/s, and the relative humidity was 65% at the timing of application. The sprayed pots were placed in a greenhouse for 10 days to grow Echinochloa crus-galli and then herbicidal effects were evaluated on a scale of 0 to 100.

Echinochloa crus-galli [5] = experiment: Herbicidal effect, soil spray the day after seeding, pot test (Example 1153); conditions: 100 L per 10000 m^2, 30 PSI, 10 days in greenhouse, scale of 0 to 100
Method: as §2, with “in Table 1 at the” for “in Table 2 at the”, “liquid of 100 L per” for “liquid of 150 L per”, “might be 20 or 10” for “might be 30 or 15”, “20 or 10 g per” for “30 or 15 g per”, “evaluated on scale of” for “evaluated on a scale of”

[6] = test system: Waterhemp having a Gly210 deletion mutation in PPO2; experiment: Herbicidal effect, soil spray the day after seeding, pot test (Example 1156); conditions: 15 g per 10000 m^2; 150 L per 10000 m^2; 30 PSI; 10 days in greenhouse; scale of 0 to 100
Method: as §2, with “Waterhemp having a Gly210 deletion mutation in PPO2 was” for “Echinochloa crus-galli was”, “Table 4” for “Table 2”, “be” for “be 30 or”, “grow waterhemp” for “grow Echinochloa crus-galli”

[7] = test system: Waterhemp having a Gly210 deletion mutation in PPO2; experiment: Herbicidal effect, soil spray the day after seeding, pot test (Example 1155); conditions: 10 g per 10000 m^2; 100 L per 10000 m^2; 30 PSI; 10 days in greenhouse; scale of 0 to 100
Method: as §2, with “Waterhemp having a Gly210 deletion mutation in PPO2, was” for “Echinochloa crus-galli was”, “Table 3” for “Table 2”, “of 100” for “of 150”, “be 10” for “be 30 or 15”, “grow waterhemp” for “grow Echinochloa crus-galli”

Structure (SMILES) | effects on the weeds [1] | effects on the weeds [2] | effects on the weeds [3] | Herbicidal effect on Echinochloa crus-galli, Air induction nozzle (TTI11004) (Echinochloa crus-galli [4]; 15 g per 10000 m^2) | Herbicidal effect on Echinochloa crus-galli, Standard nozzle (Teejet11004) (Echinochloa crus-galli [4]; 15 g per 10000 m^2) | Herbicidal effect on Echinochloa crus-galli, Air induction nozzle (TTI11004) (Echinochloa crus-galli [4]; 30 g per 10000 m^2) | Herbicidal effect on Echinochloa crus-galli, Standard nozzle (Teejet11004) (Echinochloa crus-galli [4]; 30 g per 10000 m^2) | Herbicidal effect on Echinochloa crus-galli, Air induction nozzle (TTI11002) (Echinochloa crus-galli [5]; 10 g per 10000 m^2) | Herbicidal effect on Echinochloa crus-galli, Standard nozzle (Teejet11002) (Echinochloa crus-galli [5]; 10 g per 10000 m^2) | Herbicidal effect on Echinochloa crus-galli, Air induction nozzle (TTI11002) (Echinochloa crus-galli [5]; 20 g per 10000 m^2) | Herbicidal effect on Echinochloa crus-galli, Standard nozzle (Teejet11002) (Echinochloa crus-galli [5]; 20 g per 10000 m^2) | Herbicidal effect on Waterhemp having a Gly210 deletion mutation in PPO2, Air induction nozzle (TTI11004) [6] | Herbicidal effect on Waterhemp having a Gly210 deletion mutation in PPO2, Standard nozzle (Teejet11004) [6] | Herbicidal effect on Waterhemp having a Gly210 deletion mutation in PPO2, Air induction nozzle (TTI11002) [7] | Herbicidal effect on Waterhemp having a Gly210 deletion mutation in PPO2, Pre-orifice nozzle (DG11002) [7] | Herbicidal effect on Waterhemp having a Gly210 deletion mutation in PPO2, Standard nozzle (Teejet11002) [7]
CCOC(=O)COc1ncccc1Oc1cc(-n2c(=O)cc(C(F)(F)F)n(C)c2=O)c(F)cc1Cl [compound X, Ethyl [3-[2-chloro-4-fluoro-5-(1-methyl-6-trifluoromethyl-2,4-dioxo-1,2,3,4-tetrahydropyrimidine-3-yl)phenoxy]-2-pyridyloxy]acetate] | valuable effect | valuable effect | valuable effect |  |  |  |  |  |  |  |  |  |  |  |  | 
C#CCN1C(=O)C(F)(F)Oc2cc(F)c(-n3c(=O)n(C)c(=S)n(C)c3=O)cc21 [Trifludimoxazin, trifludimoxazin] |  |  |  | 70 | 30 | 90 | 40 | 60 | 20 | 80 | 30 | 95 | 60 | 90 | 90 | 50
